Assays:
NPC1 protein = assay: NPC1 immunostaining of Purkinje cells in cerebellar sections; type: in vivo, mouse; conditions: 100 days old mice
Protocol: Mice were sacrificed by asphyxiation using CO2. Harvested organs were immersed fixed in 10% neutral buffered formalin (˜4% formaldehyde) for 24 hrs at RT. The organs were subsequently stored in 70% alcohol at RT until transfer to paraffin. Paraffin-embedded tissue sections (4-5 μm) were dewaxed in xylene and alcohol. Calbindin antigen retrieval was done by pre-incubating deparaffinized samples with 0.05% proteinase K (Dako, Germany) in 50 mM Tris-HCl (pH 7.5) for 8 min at RT. CTSS and NPC1 was retrieved by boiling the sections in acidic condition for 30 min. Blocking was done either with 2% goat serum (for calbindin and NPC1) or 2% rabbit serum (for cathepsin S) for 30 min at RT. Sections were incubated with anti-calbindin (1:1000, C9848, Sigma), anti-cathepsin S (20 μg/ml, M-19, Santa Cruz Biotechnology), anti-NPC1 (custom made against human NPC1 protein, 20 μg/ml) overnight at 4° C. […] Vectashield (Vector laboratories) was used as mounting medium and processed for fluorescence microscopy.
(§1) Tissue sections after IFA and filipin stained fibroblasts were visualized with 40× oil-immersion objective lens (NA 1.35). […] Digital image collection were performed using an Olympus IX inverted fluorescence microscope and a Photometrix cooled CCD camera (CH350/LCCD) driven by DeltaVision software from Applied Precision (Seattle, Wash., USA). […] Images were analyzed using ImageJ software (NIH, MD, USA).

Npc1^nmf164 fibroblasts = assay: Filipin staining of cholesterol in cultured mouse skin fibroblasts; type: cell-based; conditions: 5 μM Vo for 48 hrs
Protocol: Ear pinna was cleaned with 70% alcohol and 2-3 small pieces (3×3 mm) were chopped and placed in 70% alcohol for 2 min and transferred to DMEM. Tissues were cut into small pieces and 2 ml of 0.25% trypsin were added, vigorously vortexed for 2 min and incubated at 37° C. with vortexing every 10 min. Trypsin was inactivated by adding 2 ml of culture media (DMEM+10%FBS). Cells were collected by spin (1000 rpm for 5 min), and were grown in DMEM+10% FBS in the presence penicillin (50 U/ml) and streptomycin (50 μg/ml). For treatment with vorinostat, fibroblasts (4×10^4) were plated in 24 well plate containing glass slide. Npc1^nmf164 fibroblasts were treated with 5 μM vorinostat for 48 hrs. Cells incubated with 0.025% DMSO served as vehicle control. Cells were fixed with 4% paraformaldehyde followed by incubation with filipin (100 μg/ml) to stain cholesterol. Slides were mounted using Vectashield (Vector laboratories) and processed for fluorescence microscopy.
as §1

[1] = cited from earlier work
Npc1^nmf164 mice = assay: Neurobehavioral assessment (cumulative disease score 0-13); type: in vivo, mouse; conditions: for cumulative neurobehavioral disease score: at 105-112 days, scale 0-13, Vo 50 mg/Kg, 2×HPBCD 4000 mg/Kg, TCF; for onset of individual symptoms (gait, grooming, limb tone, weight): weekly i.p. treatment
Protocol: A modified version of previously described method (Carroll et al., 2010) was used for assessing the neurobehavioral functions in mice. Six different parameters (FIG. 3A) associated with neurobehavioral functions of mice were assessed. Each mouse was assessed individually in an observation box (length, 31.8 cm, width, 19.8 cm and height, 10.5 cm) with a grid floor. A mouse was assessed for tremor (0 and 2), body position (0, 1 and 2), gait (0, 1 and 2), grooming (0, 1 and 2), limb tone (0, 1 and 2), and weight loss (0, 1, 2 and 3). For each symptom except weight, a mouse received a score 0 if no symptom was observed and score 2 when the most severe impairment in the function was seen. A mouse was given score 0 for weight loss below 5%, 1 for 5-10%, 2 for >10 and up to 20%, and 3 for >20 up to 30%. A cumulative score of 0-3 correlate with no neurobehavioral impairment and a score of 13 is the most impaired neurobehavioral function. Operator-independence scoring was also tested by two independent blinded operators on 6 NPC (Npc1^nmf164) and 4 healthy control (Npc1^+/nmf164) mice.

Npc1 transcript = assay: qPCR of Npc1 transcript in liver; type: in vivo, mouse; conditions: at 100 days
Protocol: Vorinostat (50 mg/Kg)—Vorinostat was first dissolved in DMSO (100 mg/ml) and then diluted with 9 volume of Polyethylene Glycol 400 (PEG). This drug solution was named as ‘solution A’. Solution A was diluted with equal volume of water where the final concentration of each component was as follows; Vorinostat, 5 mg/ml; DMSO, 5% and PEG, 45%. Mice were given weekly intraperitoneal (i.p) injections starting at 21 days. Vorinostat (100 mg/Kg)—Vorinostat was first dissolved in DMSO (200 mg/ml) and then mixed with 9 volumes of PEG. Rest of the methods and injections plan were as described above. HPBCD (4000 mg/Kg)—40% HPBCD solution prepared in water. Mice were given weekly i.p injections starting at 7 days. HPBCD (2000 mg/Kg)—20% HPBCD solution prepared in water. Mice were given weekly i.p injections starting at 7 days. TCF (Vorinostat, 50 mg/Kg+HPBCD, 2000 mg/Kg, DMSO, 5%+PEG, 45%)—To prepare the formulation, the ‘solution A’ was first prepared as described above and equal volume of 40% HPBCD solution was slowly layered on top of it. The solution was gently mixed for 10 min at RT on rocker set at medium speed. […]
Quantitative PCR (qPCR) was performed using Power SYBR Green RNA-to-CT 1-Step Kit and an ABI Prism 7500 Fast real-time PCR system (Applied Biosystems, Grand Island, USA). […] The relative amount of transcript was determined using comparative CT method. […]

[2] = delivered systemically; cited from earlier work

## O=C(CCCCCCC(=O)Nc1ccccc1)NO [vorinostat]
NPC1 protein
  NPC1 staining in Purkinje cells (in words): Slight staining of NPC1
Npc1^nmf164 fibroblasts
  cholesterol levels in NPC fibroblasts (filipin): reduced
Npc1^nmf164 fibroblasts; listed as Vorinostat
  cholesterol levels in NPC fibroblasts (filipin): decreased cholesterol levels in NPC cells to those seen in fibroblasts from control
[1]
  solubility in aqueous solution: poorly soluble in aqueous solution
Npc1^nmf164 mice
  cumulative neurobehavioral disease score: 9-11
  onset of individual symptoms (gait, grooming, limb tone, weight): no consistent, significant advantage in any symptomatic read out

## CC(O)COC[C@H]1O[C@@H]2O[C@H]3[C@H](O)[C@@H](O)[C@@H](O[C@H]4[C@H](O)[C@@H](O)[C@@H](O[C@H]5[C@H](O)[C@@H](O)[C@@H](O[C@H]6[C@H](O)[C@@H](O)[C@@H](O[C@H]7[C@H](O)[C@@H](O)[C@@H](O[C@H]8[C@H](O)[C@@H](O)[C@@H](O[C@H]1[C@H](O)[C@H]2O)O[C@@H]8COCC(C)O)O[C@@H]7COCC(C)O)O[C@@H]6COCC(C)O)O[C@@H]5COCC(C)O)O[C@@H]4COCC(C)O)O[C@@H]3COCC(C)O (stereo partly drawn) [HPBCD, 2-Hydroxypropyl-β-cyclodextrin]
Npc1 transcript
  Npc1 transcript levels in the liver: no effect on target Npc1 expression
[2]
  crossing of the blood brain barrier: does not cross the blood brain barrier
Npc1^nmf164 mice
  cumulative neurobehavioral disease score: 6-8
  onset of individual symptoms (gait, grooming, limb tone, weight): Worsening in gait, grooming and weight were also delayed by 2×HPBCD, but less so than by the TCF
